Reference: patent publication US12708620B2, “Prodrugs and medical uses thereof” (priority 2018, dated 2026)

Columns and labels:
NCI-H69 tumor xenograft = assay: lung cancer (SCLC) xenograft model; type: in vivo, BALB/c Nude Mice; conditions: for Anti-tumor effect: 600 mg/kg IP, hypoxic status confirmed, methanesulfonate, 600 mg/kg
Procedure: All animal models were established as xenograft model in BALB/c Nude Mice (6-8 weeks old, 17-23 grams, maintained in standard conditions and diet), following approved IACUC (Institutional Animal Care and Use Committees) protocols. Cpd.11 Ms was formulated using 2% dimethyl sulfoxide (DMSO in water for injection, starting from a Cpd.11 Ms main preparation (100-60 mg/ml in 2% DMSO in water for injection).
After tumor cell inoculation, the animals were checked daily for morbidity and mortality. Before commencement of treatment all animals were weighed and the tumor volumes were measured using a caliper. The treatments were started when the mean tumor size reached approx. 250 mm^3. […] The date of tumor cell inoculation was denoted as day 0 (thus injections were performed at day 1, 2, 3, 4, and 5). At the time of routine monitoring, the animals were checked for any effects of tumor growth and treatments on normal behavior such as mobility, visual estimation of food and water consumption, body weight gain/loss (body weights were measured daily during the 5-day treatment and thrice weekly after treatment), eye/hair matting and any other abnormal effect. Death and observed clinical signs were recorded on the basis of the numbers of animals within each subset. Tumor volumes were measured daily during the 5-day treatment and thrice weekly after treatment in two dimensions using a caliper, and the volume was expressed in mm3 using the formula: V=0.5 a×b2 where a and b are the long and short diameters of the tumor, respectively. The entire procedures of dosing as well as tumor and body weight measurement were conducted in a Laminar Flow Cabinet. Individual mice were euthanized by cervical dislocation when the tumor size reached 1400-1600 mm3. The surrogate endpoint for survival was calculated and indicated as TVx4 (initial tumor volume times 4). Statistical analysis of difference in tumor volume among the groups was conducted at the end of experiment using Independent-Samples T Test. All data were analyzed in SPSS (Statistical Product and Service Solutions) version 18.0 (IBM, Armonk, NY, U.S.). P-values were rounded to three decimal places, with the exception that raw P-values less than 0.001 were stated as P<0.001. All tests were two-sided. P<0.05 was considered to be statistically significant.
For the MDA-MB-436 tumor (ATCC: HTB-130; Passage: P4) cells were maintained in vitro as a monolayer culture in L-15 medium supplemented with 10% heat inactivated fetal bovine serum at 37° C. in an atmosphere of 100% air. For NCI-H69 (ATCC: HTB-119; Passage: P3), tumor cells were maintained in vitro in RPMI1640 medium supplemented with 10% fetal bovine serum at 370C in an atmosphere of 5% CO2 in air. For PANC-1 (ATCC: CRL-1469; Passage: P2) tumor cells were maintained in vitro as a monolayer culture in DMEM medium supplemented with 10% heat inactivated fetal bovine serum at 37 °C in an atmosphere of 5% CO2 in air. The tumor cells were routinely sub-cultured twice weekly by trypsin-EDTA treatment. The cells growing in an exponential growth phase were harvested and counted for tumor inoculation. Each mouse was inoculated with 1×10^7 tumor cells (orthotopically at the right mammary fat pad for MDA-MB-436 model, or subcutaneously at the right flank region for both NCI-H69 model and PANC-1 model) in 0.1 ml of PBS mixed with Matrigel (1:1, Corning, #354234) for tumor development. […]

[1] = test system: panel of cancer cell lines; assay: formation rate of Cpd.11c and Cpd.11d metabolites in cancer cell lines; type: in vitro ADME, human
Source text: FIG. 3: cytotoxicity of Cpd.11 Ms and metabolites in normoxic and anoxic conditions in a panel of human cancer cell lines. […] The same panel of cell lines has been used to calculate the formation rate of Cpd.11c and Cpd.11d metabolites (B). A panel of human cell lines isolated from lung cancer (A-427, […], NCI-460, NCI-H1975), pancreatic cancer (Hs 766T, BxPC-3, Capan-1), and breast cancer (MDA-MB-453, SK-BR-3, EFM-19, Hs578t) has been exposed to synthetic version of Cpd.11c and Cpd.11d metabolites, that present cytotoxic properties also in normoxic conditions (C). The average plating efficiency in the drug-free control wells was 43% under normoxic and 30% under anoxic conditions.

SMILES: CCN1CCN(C(=O)c2cc(N(CCBr)CCOS(C)(=O)=O)c(S(C)(=O)=O)cc2[N+](=O)[O-])CC1.CS(=O)(=O)O [Cpd.11 Ms, 4-(5-((2-bromoethyl) (2-((methylsulfonyl)oxy)ethyl)amino)-4-(methylsulfonyl)-2-nitrobenzoyl)-1-ethylpiperazin-1-ium methanesulfonate]
- Anti-tumor effect (NCI-H69 tumor xenograft; single treatment cycle, listed as Cpd.11Ms): Strong impact,
- Anti-tumor effect (NCI-H69 tumor xenograft; single treatment cycle): significant regression of the tumours
- therapeutic response with alternative regimens (NCI-H69 tumor xenograft; repeated administration over 3 weeks): longer term tumor control
- effects on body weight (NCI-H69 tumor xenograft; single treatment cycle, IP): absence of effects on body weight
- median surrogate survival index (TVx4) in comparison to vehicle treated animals (NCI-H69 tumor xenograft; single treatment cycle, IP): doubled
- conversion of Cpd.11 Ms into Cpd.11c and Cpd.11d (FIG. 3B) [1]: strong and rapid ratio of conversion
